Measured values reported in PubChem BioAssay (NCI).
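Grown in 96-well plates, cells were treated for 48 hours with each compound at five concentrations. Insufficient inhibition: endpoint recorded as highest concentration tested. At the TGI there is no net growth.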

Legend:
Test in all cases: NCI anticancer screen, dose series, 48 h
[1] = system: NCI-H460 lung
[2] = system: NCI-H226 lung
[3] = system: MDA-MB-435
[4] = system: T-47D breast
[5] = system: NCI-H522 lung
[6] = system: BT-549 breast
[7] = system: MCF7 breast
[8] = system: SN12C renal
[9] = system: LOX IMVI melanoma
[10] = system: HCT-15 colon
[11] = system: OVCAR-4 ovarian
[12] = system: SK-MEL-5 melanoma
[13] = system: IGROV1 ovarian
[14] = system: COLO 205 colon
[15] = system: UACC-62 melanoma
[16] = system: K-562 leukemia
[17] = system: SNB-19 CNS
[18] = system: 786-0 renal
[19] = system: SK-OV-3 ovarian
[20] = system: UO-31 renal
[21] = system: MOLT-4 leukemia
[22] = system: NCI/ADR-RES ovarian
[23] = system: OVCAR-5 ovarian
[24] = system: MDA-MB-231 breast
[25] = system: NCI-H23 lung
[26] = system: U251 CNS
[27] = system: SK-MEL-28 melanoma
[28] = system: A549 NSCLC
[29] = system: OVCAR-8 ovarian
[30] = system: HCC-2998 colon
[31] = system: PC-3 prostate
[32] = system: SF-268 CNS
[33] = system: CCRF-CEM leukemia
[34] = system: HOP-92 NSCLC
[35] = system: HL-60(TB) leukemia
[36] = system: ACHN renal
[37] = system: TK-10 renal
[38] = system: RXF 393 renal
[39] = system: M14 melanoma
[40] = system: MALME-3M melanoma
[41] = system: HOP-62 NSCLC
[42] = system: SR leukemia
[43] = system: CAKI-1 renal
[44] = system: KM12 colon
[45] = system: HCT-116 colon
[46] = system: SF-539 CNS
[47] = system: A498 renal
[48] = system: SK-MEL-2 melanoma
[49] = system: MDA-N
[50] = system: HS 578T breast
[51] = system: DU-145 prostate
[52] = system: OVCAR-3 ovarian
[53] = system: UACC-257 melanoma
[54] = system: EKVX NSCLC
[55] = system: RPMI-8226 leukemia
[56] = system: SF-295 CNS
[57] = system: SW-620 colon
[58] = system: HT29 colon
[59] = system: SNB-75 CNS

O=C(c1ccccc1)C(C(=O)c1ccccc1)c1nc2ccccc2sc1=O
TGI [1]: > 25 µM | TGI [2]: 23 µM | TGI [3]: > 25 µM | TGI [4]: > 25 µM | TGI [5]: > 25 µM | TGI [6]: > 25 µM | TGI [7]: > 25 µM | TGI [8]: > 25 µM | TGI [9]: > 25 µM | TGI [10]: > 25 µM | TGI [11]: > 25 µM | TGI [12]: > 25 µM | TGI [13]: > 25 µM | TGI [14]: > 25 µM | TGI [15]: 24 µM | TGI [16]: > 25 µM | TGI [17]: > 25 µM | TGI [18]: > 25 µM | TGI [19]: > 25 µM | TGI [20]: > 25 µM | TGI [21]: > 25 µM | TGI [22]: > 25 µM | TGI [23]: > 25 µM | TGI [24]: > 25 µM | TGI [25]: > 25 µM | TGI [26]: > 25 µM | TGI [27]: > 25 µM | TGI [28]: > 25 µM | TGI [29]: > 25 µM | TGI [30]: > 25 µM | TGI [31]: > 25 µM | TGI [32]: > 25 µM | TGI [33]: > 25 µM | TGI [34]: 13 µM | TGI [35]: > 25 µM | TGI [36]: > 25 µM | TGI [37]: > 25 µM | TGI [38]: > 25 µM | TGI [39]: > 25 µM | TGI [40]: > 25 µM | TGI [41]: > 25 µM | TGI [42]: […] | TGI [43]: > 25 µM | TGI [44]: > 25 µM | TGI [45]: > 25 µM | TGI [46]: > 25 µM | TGI [47]: > 25 µM | TGI [48]: > 25 µM | TGI [49]: > 25 µM | TGI [50]: > 25 µM | TGI [51]: > 25 µM | TGI [52]: > 25 µM | TGI [53]: > 25 µM | TGI [54]: > 25 µM | TGI [55]: > 25 µM | TGI [56]: > 25 µM | TGI [57]: > 25 µM | TGI [58]: > 25 µM

COc1cc2oc3c(c(=O)c2c(O)c1/C=C/C(C)C)CCC(C)(C)Oc1cc(O)ccc1-3
TGI [1]: 21.3 µM | TGI [3]: 39.8 µM | TGI [4]: > 100 µM | TGI [5]: 38.1 µM | TGI [6]: 31.6 µM | TGI [7]: 26.7 µM | TGI [8]: 27.4 µM | TGI [9]: > 100 µM | TGI [10]: 21.8 µM | TGI [11]: 28.6 µM | TGI [12]: 39.9 µM | TGI [13]: 40.6 µM | TGI [14]: 66.9 µM | TGI [15]: 30.3 µM | TGI [16]: 13.6 µM | TGI [17]: 30.7 µM | TGI [59]: 33.1 µM | TGI [18]: 47.1 µM | TGI [19]: 34.8 µM | TGI [20]: 25.8 µM | TGI [21]: 35 µM | TGI [22]: 39.3 µM | TGI [23]: 30.7 µM | TGI [24]: 32.4 µM | TGI [25]: 30.1 µM | TGI [26]: 66.1 µM | TGI [27]: 40.2 µM | TGI [28]: 27.1 µM | TGI [29]: 31.4 µM | TGI [30]: 27.5 µM | TGI [31]: 28.4 µM | TGI [32]: 32.2 µM | TGI [33]: 57.6 µM | TGI [34]: 34.3 µM | TGI [35]: 45.4 µM | TGI [36]: 27.1 µM | TGI [37]: 28.7 µM | TGI [38]: 24.4 µM | TGI [39]: 23 µM | TGI [40]: 41.4 µM | TGI [41]: 28.9 µM | TGI [42]: 20 µM | TGI [43]: 30.6 µM | TGI [44]: 21.8 µM | TGI [45]: 65.9 µM | TGI [46]: 26.2 µM | TGI [47]: 42.6 µM | TGI [48]: 30.2 µM | TGI [49]: 25.6 µM | TGI [50]: 31.2 µM | TGI [51]: 97.9 µM | TGI [52]: 29 µM | TGI [53]: 29.2 µM | TGI [54]: 47.6 µM | TGI [55]: 45.5 µM | TGI [56]: 27.7 µM | TGI [57]: 51.8 µM | TGI [58]: 19.2 µM

NC(=O)SCC(=O)Nc1ccc2cccc3c2c1CC3
TGI [3]: 33.6 µM | TGI [4]: 95.9 µM | TGI [5]: > 100 µM | TGI [6]: 34.3 µM | TGI [7]: 29.6 µM | TGI [8]: 45.6 µM | TGI [9]: 21.6 µM | TGI [10]: > 100 µM | TGI [11]: 56.8 µM | TGI [12]: 75.9 µM | TGI [13]: > 100 µM | TGI [14]: > 100 µM | TGI [15]: 37.5 µM | TGI [16]: > 100 µM | TGI [17]: > 100 µM | TGI [59]: > 100 µM | TGI [18]: 42.8 µM | TGI [20]: > 100 µM | TGI [21]: 63.1 µM | TGI [22]: > 100 µM | TGI [23]: 52 µM | TGI [24]: 27.4 µM | TGI [25]: 59.9 µM | TGI [26]: 20.5 µM | TGI [28]: > 100 µM | TGI [29]: > 100 µM | TGI [30]: > 100 µM | TGI [31]: > 100 µM | TGI [32]: 44.8 µM | TGI [33]: > 100 µM | TGI [34]: 4.61 µM | TGI [35]: 28.3 µM | TGI [36]: 44.7 µM | TGI [37]: 69.8 µM | TGI [38]: 54.4 µM | TGI [39]: > 100 µM | TGI [40]: > 100 µM | TGI [41]: > 100 µM | TGI [42]: 32.9 µM | TGI [43]: 91.9 µM | TGI [44]: > 100 µM | TGI [45]: 36 µM | TGI [46]: 34.6 µM | TGI [47]: > 100 µM | TGI [48]: 47.1 µM | TGI [49]: 47.2 µM | TGI [50]: > 100 µM | TGI [51]: > 100 µM | TGI [52]: > 100 µM | TGI [53]: 51.3 µM | TGI [54]: > 100 µM | TGI [55]: 49.2 µM | TGI [56]: > 100 µM | TGI [57]: 24.6 µM | TGI [58]: 88.7 µM
